From patent US5026704A, “Benzo[f]quinoxaline-2,3(1H,4H)-diones” (Novo Nordisk A/S, priority 1987, dated 1991)
≈ marks a conversion by molar mass, not a printed value.

Key:
[1] = molecular target: quisqualate type receptors; assay: ^3 H-AMPA binding: displacement of ^3 H-AMPA from quisqualate type receptors in cerebral cortical membrane homogenate; design: species or system rat; details: displacement of 50% of specific ^3 H-AMPA binding; 5 nM ^3 H-AMPA, 0° C., 30 min, pH 7.1
Protocol: The pharmacological properties of the compounds of the present invention can be illustrated by determining their capability for displacing radioactively labelled 2-amino-3-hydroxy-5-methyl-4-isoxazolepropionic acid (AMPA) from the quisqualate type receptors.
The displacement activity of the compounds may be shown by determining the IC50 value which represents the concentration (μg/ml) which causes a displacement of 50% of the specific binding of ^3 H-AMPA.
500 μl of thawed rat cerebral cortical membrane homogenate in Tris-HCl (30 mM), CaCl2 (2.5 mM) and KSCN (100 mM) pH 7.1 were incubated at 0° C. for 30 min. with 25 μl ^3 H-AMPA (5 nM final concentration) and the test compound and buffer. Nonspecific binding was determined by incubation with L-glutamic acid (600 μM final concentration). The binding reaction was terminated by adding 5 ml of ice-cold buffer followed by filtration through Whatman GF/C glass fibre filters and 2×5 ml wash with ice-cold buffer. Bound radioactivity was measured by scintillation counting. IC50 was determined by Hill analysis of at least four concentrations of test compound.

[2] = tested on: quisqualic acid stimulated ^3 H-GABA-efflux from cultured cortical neurones; assay: Antagonism of quisqualic acid stimulated ^3 H-GABA efflux from cultured cortical neurones (release experiments); type: cell-based, mouse; details: Rattus norvegicus, Cortical neurone; concentration which reduces the rate of quisqualic acid stimulated ^3 H-GABA efflux by 50%; 37° C., pH 7.4

| IC50 [1] [mg/L] | EC50 [2] [mg/L] | Compound |
| --- | --- | --- |
| 0.61 (≈ 2.07 µM) | > 4 | O=c1[nH]c2c3ccccc3ccc2n(C2CCCCC2)c1=O [Compound 27k, 4-Cyclohexylbenzo[f]quinoxaline-2,3(1H,4H)-dione] |
| 0.96 (≈ 4.34 µM) | 2.1 (≈ 9.49 µM) | Cn1c(=O)c(=O)[nH]c2cc([N+](=O)[O-])ccc21 [Compound 7, 1-Methyl-6-nitroquinoxaline-2,3(1H,4H)-dione] |
| 0.42 (≈ 1.86 µM) | 2.1 (≈ 9.28 µM) | Cn1c(=O)c(=O)[nH]c2c3ccccc3ccc21 [Compound 13, 4-Methylbenzo[f]quinoxaline-2,3(1H,4H)-dione] |
| 0.69 (≈ 2.13 µM) | – | O=c1[nH]c2cc([N+](=O)[O-])c(Cl)cc2n(C2CCCCC2)c1=O [Compound 16, 1-Cyclohexyl-6-nitro-7-chlorquinoxaline-2,3(1H,4H)-dione] |
